Where “and” joins values, the source holds several entries; their conditions need not be identical. Equal entries are not always repeated. Where two headings read alike, the source gives them in different places.
Legend:
human ERα [1] = molecular target: T1, human ERα (Homo sapiens, UniProt P03372); test: NF-κB luciferase reporter (ER/NF-KB-luc) in Ad5-wt-hERα infected HAECT-1 cells; settings: for IC50: ER/NF-KB-luc IC50, Ad5-wt-ER infected HAECT-1 cells, IL-1β
T1 sequence (P03372 1-595): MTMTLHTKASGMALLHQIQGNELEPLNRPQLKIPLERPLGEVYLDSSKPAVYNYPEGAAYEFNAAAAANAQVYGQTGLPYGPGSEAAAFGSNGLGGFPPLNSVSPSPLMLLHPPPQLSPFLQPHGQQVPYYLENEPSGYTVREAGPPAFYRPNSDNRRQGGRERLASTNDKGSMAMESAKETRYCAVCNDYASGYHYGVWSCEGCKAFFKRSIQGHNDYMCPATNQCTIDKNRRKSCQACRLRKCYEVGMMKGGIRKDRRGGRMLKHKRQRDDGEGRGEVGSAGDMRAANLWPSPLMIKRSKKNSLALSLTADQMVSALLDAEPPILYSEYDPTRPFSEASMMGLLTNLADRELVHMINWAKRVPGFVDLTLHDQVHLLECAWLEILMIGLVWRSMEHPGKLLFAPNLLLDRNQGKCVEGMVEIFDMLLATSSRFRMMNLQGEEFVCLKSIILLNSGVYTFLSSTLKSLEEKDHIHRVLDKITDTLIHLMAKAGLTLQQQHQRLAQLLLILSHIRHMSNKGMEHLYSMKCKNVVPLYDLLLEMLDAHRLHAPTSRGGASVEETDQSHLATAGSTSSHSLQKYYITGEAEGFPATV

human ERα [2] = molecular target: T1, human ERα; test: Creatine kinase expression (ER/CK) in Ad5-wt-hERα infected HAECT-1 cells; settings: for ER/CK % E2: efficacy relative to the maximal stimulation observed with E2
[3] = HAECT1, read-out: ER/NF-KB-luc % E2, efficacy relative to the maximal inhibition observed with E2
[4] = HAECT1, read-out: ER/NF-KB-luc % E2

Row | IC50 (human ERα [1]) | Emax (human ERα [1]; [3]) | EC50 (human ERα [2]) | ER/CK % E2 (human ERα [2]) | ER/NF-KB-luc % E2 (human ERα [1]; efficacy relative to the maximal inhibition observed with E2) | Compound | Emax (human ERα [1]; [4]) | EC50 (human ERα [2]; read-out: ER/CK EC50, Ad5-wt-ER infected HAECT-1 cells)
1 | 22 nM | 86% | 57 nM | 20 % E2 | – | CCCn1nc(-c2ccc(O)cc2C)c2cccc(C(F)(F)F)c21 [Example 76, 3-methyl-4-[1-propyl-7-(trifluoromethyl)-1H-indazol-3-yl]phenol] | – | –
2 | – | 89% | 25 nM | 70 % E2 | – | CCCn1nc2c(C)cccc2c1-c1ccc(O)cc1 [Example 38, 4-[7-methyl-2-propyl-2H-indazol-3-yl]phenol] | – | –
3 | 587 nM | 111% | 1040 nM | 70 % E2 | – | Cn1nc(-c2ccc(O)c(O)c2)c2cccc(C(F)(F)F)c21 [Example 176, 4-[1-methyl-7-(trifluoromethyl)-1H-indazol-3-yl]benzene-1,2-diol] | – | –
4 | 43 nM | 76% | 490 nM | 27 % E2 | – | CSc1ccc(-c2cccc3c(-c4ccc(O)cc4C)nn(C4CCCC4)c23)cc1 [Example 257, 4-{1-cyclopentyl-7-[4-(methylthio)phenyl]-1H-indazol-3-yl}-3-methylphenol] | – | –
5 | 7 nM | 85% | 140 nM | 46 % E2 | – | C=CCn1nc2c(C(F)(F)F)cccc2c1-c1ccc(O)cc1C [Example 72, 4-[2-allyl-7-(trifluoromethyl)-2H-indazol-3-yl]-3-methylphenol] | – | –
6 | 29 nM | 56% | 17 nM | 32 % E2 | – | Oc1ccc(-c2nn(C3CCCC3)c3c(C(F)(F)F)cccc23)c(O)c1 [Example 66, 4-[1-cyclopentyl-7-(trifluoromethyl)-1H-indazol-3-yl] benzene-1,3-diol] | – | –
7 | 62 nM | 97% | 205 nM | 54 % E2 | – | Oc1ccc(-c2n[nH]c3ccccc23)cc1 [Example 130, 4-(H-indazol-3-yl)phenol] | – | –
8 | 53 nM | 64% | 250 nM | 35 % E2 | – | CC(C)n1nc(-c2ccc(O)cc2)c2cccc(-c3ccco3)c21 [Example 267, 4-[7-(2-furyl)-1-isopropyl-1H-indazol-3-yl]phenol] | – | –
9 | 515 nM | 106% | 1120 nM | 59 % E2 | – | OCCn1nc(-c2ccc(O)cc2)c2ccccc21 [Example 158, 4-[1-(2-hydroxyethyl)-1H-indazol-3-yl]phenol] | – | –
10 | 11 nM | 82% | 136 nM | 28 % E2 | – | Oc1ccc(-c2nn(C3CCCC3)c3c(-c4ccccc4)cccc23)cc1 [Example 246, 4-(1-cyclopentyl-7-phenyl-1H-indazol-3-yl)phenol] | – | –
11 | 473 nM | 84% | 902 nM | 27 % E2 | – | CCCCn1nc(-c2ccc(O)cc2)c2cc(C(F)(F)F)ccc21 [Example 206, 4-[1-butyl-5-(trifluoromethyl)-1H-indazol-3-yl]phenol] | – | –
12 | 27 nM and 246 nM | 82% | 166 nM | 91 % E2 | 71 % E2 | CCC(=O)Oc1ccc(-c2nn(C3CCCC3)c3c(F)cccc23)cc1 [Example 115, 4-(1-cyclopentyl-7-fluoro-1H-indazol-3-yl)phenyl propionate] | – | –
13 | 435 nM | 86% | 1480 nM | 58 % E2 | – | Cn1nc(-c2ccc(O)cc2)c2cccc(F)c21 [Example 200, 4-(7-fluoro-1-methyl-1H-indazol-3-yl)phenol] | – | –
14 | 63 nM | 83% | 982 nM | 48 % E2 | – | C=CCn1nc2c(C(F)(F)F)cccc2c1-c1ccc(O)cc1O [Example 75, 4-[2-allyl-7-(trifluoromethyl)-2H-indazol-3-yl]-1,3-benzenediol] | – | –
15 | 106 nM | 84% | 327 nM | 43 % E2 | – | C=CCn1nc(-c2ccc(O)cc2)c2cccc(F)c21 [Example 50, 4-(1-allyl-7-fluoro-1H-indazol-3-yl)phenol] | – | –
16 | 68 nM | 77% | 213 nM | 35 % E2 | – | Cc1cc(O)ccc1-c1nn(C2CCCC2)c2c(-c3cc4ccccc4s3)cccc12 [Example 266, 4-[7-(1-benzothien-2-yl)-1-cyclopentyl-1H-indazol-3-yl]-3-methylphenol] | – | –
17 | – | – | – | – | – | CCCn1nc(-c2ccc(O)cc2)c2cccc(C)c21 [Example 37, 4-(7-methyl-1-propyl-1H-indazol-3-yl)phenol] | 95% | –
18 | 235 nM | 46% | – | – | – | C=CCn1nc(-c2ccc(O)cc2O)c2cccc(Cl)c21 [Example 85, 4-(1-allyl-7-chloro-1H-indazole-3-yl)benzene-1,3-diol] | – | –

Row | IC50 (human ERα [1]) | Emax (human ERα [1]; [3]) | EC50 (human ERα [2]) | ER/CK % E2 (human ERα [2]) | ER/NF-KB-luc % E2 (human ERα [1]; efficacy relative to the maximal inhibition observed with E2) | Compound | Emax (human ERα [1]; [4]) | EC50 (human ERα [2]; read-out: ER/CK EC50, Ad5-wt-ER infected HAECT-1 cells)
19 | – | 82% | – | – | – | Cc1cc(O)ccc1-c1nn(C(C)C)c2c(C(F)(F)F)cccc12 [Example 83, 4-[1-isopropyl-7-(trifluoromethyl)-1H-indazole-3-yl]-3-methylphenol] | – | –
20 | – | – | – | – | – | Oc1ccc(-c2nn(-c3cccc(F)c3)c3cc(O)ccc23)c(O)c1 [Example 21, 4-[1-(3-fluorophenyl)-6-hydroxy-1H-indazol-3-yl]benzene-1,3-diol] | 73% | –
21 | – | 79% | – | – | – | CCCn1nc(-c2ccc(O)cc2)c2cccc(Cl)c21 [Example 43, 4-(7-chloro-1-propyl-1H-indazol-3-yl)phenol] | – | –
22 | 667 nM | 48% | – | – | – | CC(C)(C)C(=O)Oc1ccc(-c2nn(C3CCCC3)c3c(F)cccc23)cc1 [Example 112, 4-(1-cyclopentyl-7-fluoro-1H-indazol-3-yl)phenyl pivalate] | – | –
23 | 24 nM | 57% | – | – | – | CCc1ccc(-c2cccc3c(-c4ccc(O)cc4C)nn(C(C)C)c23)cc1 [Example 251, 4-[7-(4-ethylphenyl)-1-isopropyl-1H-indazol-3-yl]-3-methylphenol] | – | –
24 | – | 84% | – | – | – | OCCn1nc(-c2ccc(O)cc2)c2cccc(C(F)(F)F)c21 [Example 162, 4-[1-(2-hydroxyethyl)-7-(trifluoromethyl)-1H-indazol-3-yl]phenol] | – | –
25 | 367 nM | 82% | – | – | – | CC(C)n1nc(-c2ccc(O)cc2)c2cccc(-c3ccc(CO)cc3)c21 [Example 230, 4-{7-[4-(hydroxymethyl)phenyl]-1-isopropyl-1H-indazol-3-yl}-phenol] | – | –
26 | 644 nM | 77% | – | – | – | CCCCC/C=C/c1cccc2c(-c3ccc(O)cc3C)nn(C3CCCC3)c12 [Example 258, 4-{1-cyclopentyl-7-[(E)-hept-1-enyl]-1H-indazol-3-yl}-3-methyl-phenol] | – | –
27 | 228 nM | 87% | – | – | – | CCCn1nc2c(F)cccc2c1-c1ccc(O)cc1C [Example 92, 4-(7-fluoro-2-propyl-2H-indazole-3-yl)-3-methylphenol] | – | –
28 | 551 nM | 86% | – | – | – | CS(=O)(=O)c1ccc(-n2nc(-c3ccc(O)cc3O)c3ccc(O)cc32)cc1 [Example 28, 4-{6-hydroxy-1-[4-(methylsulfonyl)phenyl]-1H-indazol-3-yl}benzene-1,3-diol] | – | –
29 | – | – | – | – | – | 4-[1-isopropyl-7-(2-methylphenyl)-1H-indazol-3-yl]-3-methyl-phenol [Example 256] | – | 292 nM
30 | 505 nM | 61% | – | – | – | Oc1ccc(-c2nn(-c3ccsc3)c3c(Cl)cccc23)cc1 [Example 101, 4-(7-chloro-1-thien-3-yl-1H-indazole-3-yl)phenol] | – | –
31 | 65 nM | 91% | – | – | – | Oc1ccc(-c2nn(C3CCCCC3)c3c(C(F)(F)F)cccc23)cc1 [Example 32, 4-[1-cyclohexyl-7-(trifluoromethyl)-1H-indazol-3-yl]phenol] | – | –
32 | 27 nM | 56% | – | – | – | Cc1cc(O)ccc1-c1nn(C(C)C)c2c(-c3ccco3)cccc12 [Example 254, 4-[7-(2-furyl)-1-isopropyl-1H-indazol-3-yl]-3-methylphenol] | – | –
33 | 481 nM | 73% | – | – | – | CCCCC/C=C/c1cccc2c(-c3ccc(O)cc3C)nn(C(C)C)c12 [Example 248, 4-{7-[(E)-hept-1-enyl]-1-isopropyl-1H-indazol-3-yl}-3-methyl-phenol] | – | –
34 | 4 nM | 89% | – | – | – | Cc1cc(O)ccc1-c1nn(C(C)C)c2c(-c3ccccc3C)cccc12 [Example 255, 4-[1-isopropyl-7-(2-methylphenyl)-1H-indazol-3-yl]-3-methyl-phenol] | – | –
35 | 332 nM | 86% | – | – | – | CC(C)Cn1nc(-c2ccc(O)cc2O)c2cccc(F)c21 [Example 94, 4-(7-fluoro-1-isobutyl-1H-indazole-3-yl)benzene-1,3-diol] | – | –

Row | Compound | IC50 (human ERα [1]) | Emax (human ERα [1]; [3]) | EC50 (human ERα [2]) | ER/CK % E2 (human ERα [2]) | ER/NF-KB-luc % E2 (human ERα [1]; efficacy relative to the maximal inhibition observed with E2) | Emax (human ERα [1]; [4]) | EC50 (human ERα [2]; read-out: ER/CK EC50, Ad5-wt-ER infected HAECT-1 cells)
36 | CC(C)(C)OC(=O)N[C@@H](CCC(=O)Oc1ccc(-c2nn(C3CCCC3)c3c(F)cccc23)cc1)C(=O)OC(C)(C)C [Example 117, 1-tert-butyl 5-[4-(1-cyclopentyl-7-fluoro-1H-indazol-3-yl)phenyl] N-(tert-butoxycarbonyl)-L-glutamate] | 150 nM | 52% | 169 nM | 22 % E2 | – | – | –

From US7241791B2, “Substituted 4-(indazol-3-yl)phenols” (Wyeth, priority 2002, dated 2007)
